# Columns and labels:
# HiBIT-WDR5 [1] = target: T1, HiBIT-WDR5 (Homo sapiens, UniProt P61964); test: cell-based; parameters: species or system HEK293T HiBIT-WDR5; conditions: HEK-293T, read-out: CETSA thermal shifts [°C]
# [2] = target: HiBIT-WDR5 (HiBIT-tagged full length WDR5) (Homo sapiens, UniProt P61964); test: in vitro NanoBRET tracer displacement; format: binding
# HiBIT-WDR5 [3] = target: T1, HiBIT-WDR5; test: cell-based; parameters: species or system HEK293T HiBIT-WDR5; conditions: HEK-293T, read-out: Dmax (23-24h) at 7.5 µM in %
ΔTm at 10 µM (HiBIT-WDR5 [1]),IC50 [2],Dmax at 7.5 µM (HiBIT-WDR5 [3]),Compound
11.6 °C,–,–,Cc1ncsc1-c1ccc([C@H](C)NC(=O)[C@H]2C[C@H](O)CN2C(=O)[C@@H](NC(=O)CNC(=O)c2ccc(F)c(-c3ccc(N4C[C@@H](C)N(C)[C@@H](C)C4)c(NC(=O)c4c[nH]c(=O)cc4C(F)(F)F)c3)c2)C(C)(C)C)cc1 [MS67N]
–,> 3 µM,–,"CC(=O)N[C@H](C(=O)N1C[C@H](O)C[C@H]1C(=O)NCc1ccc(-c2scnc2C)cc1)C(C)(C)C [VH032, reference compound]"
2.6 °C,–,–,CC(=O)N[C@H](C(=O)N1C[C@H](O)C[C@H]1C(=O)NCc1ccc(-c2scnc2C)cc1)C(C)(C)C [VH032]
13.8 °C,–,69 ± 4%,Cc1ncsc1-c1ccc([C@H](C)NC(=O)[C@@H]2C[C@@H](O)CN2C(=O)[C@@H](NC(=O)CNC(=O)c2ccc(F)c(-c3ccc(N4C[C@@H](C)N(C)[C@@H](C)C4)c(NC(=O)c4c[nH]c(=O)cc4C(F)(F)F)c3)c2)C(C)(C)C)cc1 [MS67]

# Reference: article doi:10.1101/2023.01.11.523589v2 (biorxiv, 2023)
